Literature values, collected in patent US20120295320A1, “APPARATUS AND METHOD FOR TREATMENT OF MICROORGANISMS DURING PROPAGATION, CONDITIONING AND FERMENTATION USING STABILIZED CHLORINE DIOXIDE/SODIUM CHLORITE WITH HOPS ACID EXTRACTS” (RESONANT BIOSCIENCES, LLC, priority 2010, published 2012).

System: Weisella confusa
Settings: background statement, fermentation mixture

In the case of Virginiamycin, the “concentration required to inhibit growth of Weisella confusa” value is listed as “over 25 mg/L”.
